Data as given in PubChem BioAssay AID248 (DTP/NCI, 2004).
Inconclusive results and toxic doses are left out. No stated cut-off is given here; in the data, active means T/C of 150% or more; inactive means T/C below 125%.

Test system: L1210 leukemia ip in BDF1 mice, survival T/C
Assay: NCI In Vivo Anticancer Drug Screen. Data for tumor model L1210 Leukemia (intraperitoneal) in B6D2F1 (BDF1) mice
Conditions: endpoint: mean survival time, higher = longer survival
Outline: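 Tumor cells were implanted, animals were treated, and survival was followed. The result divides the treated measurement by the vehicle-control measurement.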

[1] = dose: 100.0 mg/kg/injection, schedule: Q04DX002 (ip), vehicle: Klucel (hydroxypropylcellulose) (HPC)
[2] = dose: 200.0 mg/kg/injection, schedule: Q04DX002 (ip), vehicle: Klucel (hydroxypropylcellulose) (HPC)
[3] = dose: 400.0 mg/kg/injection, schedule: Q04DX002 (ip), vehicle: Klucel (hydroxypropylcellulose) (HPC)
[4] = dose: 100.0 mg/kg/injection, schedule: Q04DX003 (ip), vehicle: Klucel (hydroxypropylcellulose) (HPC)
[5] = dose: 100.0 mg/kg/injection, schedule: Q04DX003 (ip), vehicle: saline
[6] = dose: 200.0 mg/kg/injection, schedule: Q04DX003 (ip), vehicle: saline
[7] = dose: 400.0 mg/kg/injection, schedule: Q04DX002 (ip), vehicle: saline with Tween-80
[8] = dose: 100.0 mg/kg/injection, schedule: Q04DX003 (ip), vehicle: saline with Tween-80
[9] = dose: 200.0 mg/kg/injection, schedule: Q04DX003 (ip), vehicle: saline with Tween-80

Measured: T/C

CC12CC3CC(C1)CC(NCCO)(C3)C2
inactive: dose: 10.0 mg/kg/injection, schedule: Q04DX002 (ip), vehicle: Klucel (hydroxypropylcellulose) (HPC) 87 % of control | dose: 20.0 mg/kg/injection, schedule: Q04DX002 (ip), vehicle: Klucel (hydroxypropylcellulose) (HPC) 91 % of control | dose: 40.0 mg/kg/injection, schedule: Q04DX002 (ip), vehicle: Klucel (hydroxypropylcellulose) (HPC) 91 % of control

CCCCCCCCCC1CCC(C(=O)O)CC1 (centres undefined)
inactive: dose: 75.0 mg/kg/injection, schedule: Q01DX009 (ip), vehicle: Klucel (hydroxypropylcellulose) (HPC) 105 % of control | dose: 150.0 mg/kg/injection, schedule: Q01DX009 (ip), vehicle: Klucel (hydroxypropylcellulose) (HPC) 96 % of control | dose: 300.0 mg/kg/injection, schedule: Q01DX009 (ip), vehicle: Klucel (hydroxypropylcellulose) (HPC) 98 % of control

Cc1cc(C)c(NC(=S)NC(=O)c2ccccc2)cc1C
inactive: dose: 100.0 mg/kg/injection, schedule: Q04DX002 (ip), vehicle: gum acacia 88 % of control | dose: 200.0 mg/kg/injection, schedule: Q04DX002 (ip), vehicle: gum acacia 100 % of control | dose: 400.0 mg/kg/injection, schedule: Q04DX002 (ip), vehicle: gum acacia 96 % of control

CNC(=O)OCC1=CC(=O)C=CC1=O
inactive: dose: 6.25 mg/kg/injection, schedule: Q04DX003 (ip), vehicle: Klucel (hydroxypropylcellulose) (HPC) 92 % of control | dose: 12.5 mg/kg/injection, schedule: Q01DX001 (ip), vehicle: Klucel (hydroxypropylcellulose) (HPC) 93 % of control | dose: 12.5 mg/kg/injection, schedule: Q04DX003 (ip), vehicle: Klucel (hydroxypropylcellulose) (HPC) 94 % of control | dose: 25.0 mg/kg/injection, schedule: Q01DX001 (ip), vehicle: Klucel (hydroxypropylcellulose) (HPC) 96 % of control

Nc1nc(N)c(CCCOc2ccc(NC(=O)c3cccc(S(=O)OF)c3)cc2)c(N)n1 (centres undefined)
inactive: dose: 0.8 mg/kg/injection, schedule: Q01DX015 (ip), vehicle: saline 97 % of control | dose: 4.0 mg/kg/injection, schedule: Q01DX015 (ip), vehicle: saline 97 % of control | dose: 20.0 mg/kg/injection, schedule: Q01DX015 (ip), vehicle: saline 95 % of control | dose: 100.0 mg/kg/injection, schedule: Q01DX015 (ip), vehicle: saline 106 % of control | dose: 133.0 mg/kg/injection, schedule: Q01DX015 (ip), vehicle: saline 91 % of control

CCCCCC(C)NCCOC(=O)c1ccc(N)cc1 (centres undefined)
inactive: dose: 75.0 mg/kg/injection, schedule: Q01DX001 (ip), vehicle: other 98 % of control

Cc1nccn1-c1ccc(Cl)cc1N=Cc1ccc(N(CCCl)CCCl)cc1
inactive: [1] 98 % of control | [2] 102 % of control | [3] 102 % of control

Cc1c(Cl)cccc1NC(=O)c1cccc(C(=O)Nc2cccc(Cl)c2C)c1
inactive: dose: 100.0 mg/kg/injection, schedule: Q01DX009 (ip), vehicle: Klucel (hydroxypropylcellulose) (HPC) 112 % of control | [4] 91 % of control | dose: 200.0 mg/kg/injection, schedule: Q01DX009 (ip), vehicle: Klucel (hydroxypropylcellulose) (HPC) 93 % of control | dose: 200.0 mg/kg/injection, schedule: Q04DX003 (ip), vehicle: Klucel (hydroxypropylcellulose) (HPC) 90 % of control | dose: 400.0 mg/kg/injection, schedule: Q01DX009 (ip), vehicle: Klucel (hydroxypropylcellulose) (HPC) 88 % of control | dose: 400.0 mg/kg/injection, schedule: Q04DX003 (ip), vehicle: Klucel (hydroxypropylcellulose) (HPC) 98 % of control

O=C(O)c1ccccc1C(=O)c1ccc2ccccc2c1
inactive: dose: 12.5 mg/kg/injection, schedule: Q04DX002 (ip), vehicle: saline with Tween-80 94 % of control | dose: 25.0 mg/kg/injection, schedule: Q04DX002 (ip), vehicle: saline with Tween-80 88 % of control | dose: 50.0 mg/kg/injection, schedule: Q04DX002 (ip), vehicle: saline with Tween-80 91 % of control

O=[N+]([O-])c1ccc(N/N=C2\CCC3CC23)c([N+](=O)[O-])c1 (centres undefined)
inactive: dose: 25.0 mg/kg/injection, schedule: Q04DX002 (ip), vehicle: Klucel (hydroxypropylcellulose) (HPC) 105 % of control | dose: 50.0 mg/kg/injection, schedule: Q04DX002 (ip), vehicle: Klucel (hydroxypropylcellulose) (HPC) 102 % of control | [1] 97 % of control

NNC(=O)CC(=O)NN
inactive: dose: 50.0 mg/kg/injection, schedule: Q01DX001 (ip), vehicle: saline 97 % of control | dose: 100.0 mg/kg/injection, schedule: Q01DX001 (ip), vehicle: saline 106 % of control | [5] 110 % of control | dose: 200.0 mg/kg/injection, schedule: Q01DX001 (ip), vehicle: saline 97 % of control | [6] 111 % of control | dose: 400.0 mg/kg/injection, schedule: Q01DX001 (ip), vehicle: saline 97 % of control

O=C(Nc1ccccc1Cl)Oc1ccc(-c2ccccc2)cc1
inactive: [1] 95 % of control | [2] 95 % of control | [3] 106 % of control

CC1c2[nH]c3ccccc3c2CC1C(=O)O (centres undefined)
inactive: dose: 100.0 mg/kg/injection, schedule: Q04DX002 (ip), vehicle: saline with Tween-80 97 % of control | dose: 200.0 mg/kg/injection, schedule: Q04DX002 (ip), vehicle: saline with Tween-80 91 % of control | [7] 100 % of control

Cc1nc(Cl)c(CO)c(CO)c1O
inactive: dose: 12.5 mg/kg/injection, schedule: Q01DX009 (ip), vehicle: Klucel (hydroxypropylcellulose) (HPC) 95 % of control | dose: 25.0 mg/kg/injection, schedule: Q01DX009 (ip), vehicle: Klucel (hydroxypropylcellulose) (HPC) 98 % of control | dose: 25.0 mg/kg/injection, schedule: Q04DX003 (ip), vehicle: Klucel (hydroxypropylcellulose) (HPC) 94 % of control | dose: 50.0 mg/kg/injection, schedule: Q01DX009 (ip), vehicle: Klucel (hydroxypropylcellulose) (HPC) 92 % of control | dose: 50.0 mg/kg/injection, schedule: Q04DX003 (ip), vehicle: Klucel (hydroxypropylcellulose) (HPC) 90 % of control | [4] 106 % of control

ClCc1c(Cl)cccc1Cl
inactive: [1] 97 % of control | [2] 97 % of control | [3] 97 % of control

CCCCSP(=S)(OCC)OCC
inactive: [8] 101 % of control | [9] 88 % of control

CN1c2ccc(Cl)cc2C2(C(=O)NN)C(C(=O)NN)N(C3CCCCC3)C(=O)C12N (centres undefined)
inactive: dose: 100.0 mg/kg/injection, schedule: Q01DX009 (ip), vehicle: saline with Tween-80 97 % of control | dose: 200.0 mg/kg/injection, schedule: Q01DX009 (ip), vehicle: saline with Tween-80 107 % of control

C/C(=N/Nc1c(F)c(F)c(-c2c(F)c(F)c(N/N=C(\C)c3ccccc3)c(F)c2F)c(F)c1F)c1ccccc1
inactive: dose: 25.6 mg/kg/injection, schedule: Q04DX002 (ip), vehicle: saline with Tween-80 95 % of control | dose: 64.0 mg/kg/injection, schedule: Q04DX002 (ip), vehicle: saline with Tween-80 92 % of control | dose: 160.0 mg/kg/injection, schedule: Q04DX002 (ip), vehicle: saline with Tween-80 89 % of control | [7] 92 % of control

O=C1N=C(c2ccccc2)C(c2ccccc2)=N1
inactive: [5] 96 % of control | [6] 90 % of control | dose: 400.0 mg/kg/injection, schedule: Q04DX003 (ip), vehicle: saline 96 % of control

CC(=O)Nc1ccccc1.[Hg]
inactive: dose: 1.56 mg/kg/injection, schedule: Q01DX009 (ip), vehicle: saline with Tween-80 90 % of control | dose: 3.13 mg/kg/injection, schedule: Q01DX009 (ip), vehicle: saline with Tween-80 88 % of control

COC(=O)c1ccc(Cn2ccc(=O)[nH]c2=O)cc1
inactive: dose: 50.0 mg/kg/injection, schedule: Q04DX003 (ip), vehicle: saline with Tween-80 92 % of control | [8] 95 % of control | [9] 89 % of control

CCC(=O)Nc1ccc(Cl)c(Cl)c1
inactive: [8] 95 % of control | [9] 93 % of control | dose: 400.0 mg/kg/injection, schedule: Q04DX003 (ip), vehicle: saline with Tween-80 92 % of control
